# Values joined by “and” are separate entries in the source; they are usually repeats but may differ in a detail not shown here. Equal values may be shown once.
# What was measured:
# [1] = Body weight, chronic 8-week dosing in wild-type mice; format: in vivo, mouse; conditions: C57BL/6 mice, 8 weeks chronic treatment
# Method: Compound 1 and NB-360 were formulated as a suspension. […] Vehicle: […] in 0.5% methylcellulose in water.
# Body weight was taken 3 times per week (Monday, Wednesday, Friday). Subjective scoring of any hair colour changes was performed once weekly (Wednesday). Scores (% of body with grey fur): 0: No change; 1: Spots; 2: >30%; 3: >50%; 4: >75%; 5: 100%. Animals were photo-documented when fur color change was observed. Final fur color scoring was performed blinded and by a person not involved in the study.
# Aβ40 = Aβ40 in C57BL/6 mouse brain after chronic dosing (MSD assay); format: in vivo; conditions: for Average Aβ40 brain: mean ± SD, n = 4
# Method: Frozen mouse forebrains were weighed and homogenized in 9 volumes (w/v) of ice-cold TBS-Complete (20 mM Tris-HCl pH 7.4, 137 mM NaCl, 1× Complete [Protease Inhibitor Cocktail Tablets: 1 836 145, Roche Diagnostics GmbH, Penzberg, Germany]) by sonication (90% duty cycle, output control 5, 40-55 pulses, [Sonifier 450, Branson]). After homogenization several 50 μl aliquots were prepared for analysis and were stored at −80° C.
# Human Aβ peptide (1-40) trifluoroacetate salt (H 1194.1000, Bachem, Bubendorf, Switzerland) was used as calibration curve for Aβ1-40. It was solubilized in water-free DMSO (41647, Fluka) at a concentration of 1 mg/ml for approximately 30 min at room temperature (RT) and then visually checked for complete solubilization.
# Endogenous Aβ40 in mice was determined with the Meso Scale Discovery (MSD) 96-well MULTI-ARRAY human/rodent (4G8) Aβ40 Ultrasensitive Assay (#K110FTE-3, Meso Scale Discovery, Gaithersburg, USA). The assay was performed according to the manufacturer's instructions except for the calibration curve and the sample preparations. TritonX-100 (TX-100) soluble Aβ40 was extracted from forebrain with 1% TX-100 using a 50 μl aliquot of each 1:10 forebrain homogenate, mixed with 50 μl 2% TX-100 in TBS complete (20 mM Tris-HCl pH 7.4, 137 mM NaCl, 1× Complete [Protease Inhibitor Cocktail Tablets: 1 836 145, Roche Diagnostics GmbH, Penzberg Germany]) to reach a final concentration of 1% TX-100 and a 1:20 forebrain dilution. The samples were incubated for 15 min on ice and vortexed every 5 min. The samples were ultra-centrifuged (100000×g, 4° C., 15 min) and 50 μl of the clear supernatants were transferred to fresh tubes. For the Aβ40 assay the supernatants were further diluted 1:5 in 3% Blocker A solution (from kit) to a final forebrain dilution of 1:100 and applied to the plate.
# The calibration curve was prepared in a corresponding dilution of 1% Blocker A solution spiked with synthetic Aβ1-40 peptide (1.56-100 pg/ml) except for non-transgenic mouse brain samples: In this case, the calibration curve was prepared in a correspondingly diluted APP knockout mouse forebrain spiked with synthetic Aβ1-40 peptide (1.56-100 pg/ml). For all samples and standards 25 μl were applied per well. For each determination duplicate wells were performed. The mean values from the duplicate wells were used for calculations.
# At the last day of the study, groups of n=4 mice were sacrificed 4 hours and 24 hours after having received the last dose. Forebrain was separated, and analyzed for β-amyloid peptide 1-40. Concentrations of Aβ40 for the vehicle and treatment groups are summarized in Table 6 and visualised in FIG. 2. The percent of reduction versus the corresponding vehicle treated group was calculated.
# Aβ42 [2] = assay: First-in-human study: Aβ42 in CSF; format: in vivo; conditions: 2 weeks
# Text: The purpose of this study was to determine the single and multiple maximum tolerated dose of Compound 1 and to assess the pharmacokinetic/pharmacodynamic (PK/PD) relationship using Aβ in CSF as primary PD biomarker.
# (§1) In the completed first-in-human and 3-month dose-ranging safety and tolerability clinical studies described in Examples 5 and 6, Aβ concentrations in CSF were obtained by means of lumbar punctures before the first dose (baseline) and respectively after 2 weeks and 3 months of multiple dosing. ApoE4 genotype also was obtained in the subjects who consented. The percent change from baseline in Aβ40 and Aβ42 concentrations was calculated in subjects who took the study treatment and had no major protocol deviation with potential impact on the evaluation of the pharmacodynamic effect. Tables 18 to 21 below provide summary statistics of the percent change from baseline by treatment group and ApoE genotype (E4 heterozygotes versus E4 non-carriers). Only one subject with CSF data was E4 homozygote (from the 3-month dose-ranging safety and tolerability study).
# Aβ42 [3] = assay: 3-month dose-ranging study: Aβ42 in CSF; format: in vivo, human; conditions: for Aβ42 % change from baseline, Mean (SD) / Aβ42 % change from baseline, Median: CSF, 3 months
# Text: This study is listed in ClinicalTrials.gov under the NCT02576639 Identifier code.
# The primary purpose of this study was to expand on previous safety and tolerability data obtained over 2-week and 4-week duration in the first in human study and thereby allow initiation of future long-term efficacy trials in subjects at risk of AD. In addition, data relevant for Pharmacokinetic/Pharmacodynamic modeling was obtained in order to support dose selection decisions for future efficacy studies.
# as §1
smiles,measurement,setting,value
"C[C@@]1(c2nc(NC(=O)c3ncc(C(F)(F)F)cc3Cl)ccc2F)CO[C@@](C)(C(F)(F)F)C(N)=N1 [Compound 1, N-(6-((3R,6R)-5-amino-3,6-dimethyl-6-(trifluoromethyl)-3,6-dihydro-2H-1,4-oxazin-3-yl)-5-fluoropyridin-2-yl)-3-chloro-5-(trifluoromethyl)picolinamide]",body weight difference compared to vehicle,[1],No overall significant body weight difference
same,Average Aβ40 brain,"Aβ40; C57BL/6, 8 μmol/kg q.d. 8 weeks, 4 h after last dose",432.8 ± 140.5 pg/g
same,Average Aβ40 brain,"Aβ40; C57BL/6, 8 μmol/kg q.d. 8 weeks, 24 h after last dose",1098.6 ± 148.7 pg/g
same,% reduction vs vehicle (brain Aβ40),"Aβ40; C57BL/6, 8 μmol/kg, 4 h after last dose",67.1%
same,% reduction vs vehicle (brain Aβ40),"Aβ40; C57BL/6, 8 μmol/kg, 24 h after last dose",25% and 25.3%
same,Mini AU EC (brain Aβ40),"Aβ40; C57BL/6, 8 μmol/kg, after last dose",46.2%
same,Average Aβ40 brain,"Aβ40; C57BL/6, 50 μmol/kg q.d. 8 weeks, 4 h after last dose",93.4 ± 83.7 pg/g
same,Average Aβ40 brain,"Aβ40; C57BL/6, 50 μmol/kg q.d. 8 weeks, 24 h after last dose",233.8 ± 36.5 pg/g
same,% reduction vs vehicle (brain Aβ40),"Aβ40; C57BL/6, 50 μmol/kg, 4 h after last dose",92.9%
same,% reduction vs vehicle (brain Aβ40),"Aβ40; C57BL/6, 50 μmol/kg, 24 h after last dose",84.1%
same,Mini AU EC (brain Aβ40),"Aβ40; C57BL/6, 50 μmol/kg, after last dose",88.5%
same,Aβ40 reduction over the whole 24 hour time course,"Aβ40; C57BL/6, 50 μmoles/kg, after last dose",80-90%
same,"Aβ42 % change from baseline, Mean (SD)","Aβ42 [2]; 10 mg, E4 heterozygotes",−59 (11) %
same,"Aβ42 % change from baseline, Median","Aβ42 [2]; 10 mg, E4 heterozygotes",−64%
same,"Aβ42 % change from baseline, Mean (SD)","Aβ42 [2]; 10 mg, E4 non-carriers",−58 (11) %
same,"Aβ42 % change from baseline, Median","Aβ42 [2]; 10 mg, E4 non-carriers",−59%
same,"Aβ42 % change from baseline, Mean (SD)","Aβ42 [2]; 30 mg, E4 non-carriers",−80 (6) %
same,"Aβ42 % change from baseline, Median","Aβ42 [2]; 30 mg, E4 non-carriers",−82%
same,"Aβ42 % change from baseline, Mean (SD)","Aβ42 [2]; 90 mg, E4 heterozygotes",−87 (2) %
same,"Aβ42 % change from baseline, Median","Aβ42 [2]; 90 mg, E4 heterozygotes",−87%
same,"Aβ42 % change from baseline, Mean (SD)","Aβ42 [2]; 90 mg, E4 non-carriers",−86 (5) %
same,"Aβ42 % change from baseline, Median","Aβ42 [2]; 90 mg, E4 non-carriers",−87%
same,"Aβ42 % change from baseline, Mean (SD)","Aβ42 [2]; 300 mg, E4 heterozygotes (n 1)",−89%
same,"Aβ42 % change from baseline, Median","Aβ42 [2]; 300 mg, E4 heterozygotes (n 1)",−89%
same,"Aβ42 % change from baseline, Mean (SD)","Aβ42 [2]; 300 mg, E4 non-carriers",−92 (1) %
same,"Aβ42 % change from baseline, Median","Aβ42 [2]; 300 mg, E4 non-carriers",−91%
same,"Aβ42 % change from baseline, Mean (SD)","Aβ42 [3]; 2 mg, E4 heterozygotes",−23 (9) %
same,"Aβ42 % change from baseline, Median","Aβ42 [3]; 2 mg, E4 heterozygotes",−23%
same,"Aβ42 % change from baseline, Mean (SD)","Aβ42 [3]; 2 mg, E4 non-carriers",−24 (9) %
same,"Aβ42 % change from baseline, Median","Aβ42 [3]; 2 mg, E4 non-carriers",−21%
same,"Aβ42 % change from baseline, Mean (SD)","Aβ42 [3]; 10 mg, E4 heterozygotes",−66 (7) %
same,"Aβ42 % change from baseline, Median","Aβ42 [3]; 10 mg, E4 heterozygotes",−63%
same,"Aβ42 % change from baseline, Mean (SD)","Aβ42 [3]; 10 mg, E4 non-carriers",−65 (5) %
same,"Aβ42 % change from baseline, Median","Aβ42 [3]; 10 mg, E4 non-carriers",−66%
same,"Aβ42 % change from baseline, Mean (SD)","Aβ42 [3]; 35 mg, E4 heterozygotes",−83 (5) %
same,"Aβ42 % change from baseline, Median","Aβ42 [3]; 35 mg, E4 heterozygotes",−85%
same,"Aβ42 % change from baseline, Mean (SD)","Aβ42 [3]; 35 mg, E4 non-carriers",−81 (6) %
same,"Aβ42 % change from baseline, Median","Aβ42 [3]; 35 mg, E4 non-carriers",−83%
same,"Aβ42 % change from baseline, Mean (SD)","Aβ42 [3]; 85 mg, E4 heterozygotes",−88 (2) %
same,"Aβ42 % change from baseline, Median","Aβ42 [3]; 85 mg, E4 heterozygotes",−88%
same,"Aβ42 % change from baseline, Mean (SD)","Aβ42 [3]; 85 mg, E4 non-carriers",−90 (2) %
same,"Aβ42 % change from baseline, Median","Aβ42 [3]; 85 mg, E4 non-carriers",−90%
same,"Aβ42 in CSF percent change from baseline, Difference (90% CI) Cmpd 1-Placebo","Aβ42 [3]; month 3, 2 mg QD","−21.24 (−24.28, −18.21) %"
same,"Aβ42 in CSF percent change from baseline, LSmean (SE)","Aβ42 [3]; month 3, 2 mg QD",−24.00 (1.277) %
same,"Aβ42 in CSF percent change from baseline, Difference (90% CI) Cmpd 1-Placebo","Aβ42 [3]; month 3, 10 mg QD","−61.39 (−64.47, −58.31) %"
same,"Aβ42 in CSF percent change from baseline, LSmean (SE)","Aβ42 [3]; month 3, 10 mg QD",−64.15 (1.308) %
same,"Aβ42 in CSF percent change from baseline, Difference (90% CI) Cmpd 1-Placebo","Aβ42 [3]; month 3, 35 mg QD","−79.73 (−82.73, −76.73) %"
same,"Aβ42 in CSF percent change from baseline, LSmean (SE)","Aβ42 [3]; month 3, 35 mg QD",−82.49 (1.250) %
same,"Aβ42 in CSF percent change from baseline, Difference (90% CI) Cmpd 1-Placebo","Aβ42 [3]; month 3, 85 mg QD","−86.62 (−89.76, −83.49) %"
same,"Aβ42 in CSF percent change from baseline, LSmean (SE)","Aβ42 [3]; month 3, 85 mg QD",−89.38 (1.348) %

# From patent US20200345746A1, “Oxazine Derivative for Use in the Prevention of Alzheimer's Disease in at Risk Patents” (Novartis AG, priority 2016, published 2020)
